What all share (test): NCI tumour cell line growth inhibition, 48 h
Assay [1] has as its system UO-31.
Assay [2] relates to TK-10.
The test system of assay [3] is MDA-MB-231.
Assay [4] has as its system SNB-75.
For assay [5], the system named is ACHN.
For assay [6], the system named is KM12.
The test system of assay [7] is Hs-578T.
Assay [8] has as its system HOP-92.
In assay [9] the test system is NCI-H226.
In assay [10] the test system is UACC-62.
In assay [11] the test system is HCT-15.
In assay [12] the test system is RPMI-8226.
The test system of assay [13] is OVCAR-3.
Assay [14] relates to IGROV-1.
Assay [15] has as its system COLO 205.
The test system of assay [16] is A498.
Assay [17] deals with DU-145.
In assay [18] the test system is SR.
Assay [19] has as its system K562.
The subject of assay [20] is HL-60.

Each structure is given as a SMILES string.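 Method: 48-hour compound exposure of cells in 96-well plates, five concentrations, linear interpolation of endpoints. The concentration for 50% growth inhibition is given as GI50.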 Active and inactive are the calls of the source. Cut-off read from the data, not from the text of the source: active = GI50 up to about 1.1 µM and inactive = higher. Some results are limits rather than exact numbers.

For the compound `COc1ccc(-n2cnc3c(N)nc(N)nc32)cc1`, the GI50 is 65 µM (inactive) in [1]; 85.7 µM (inactive) in [2]; 57.8 µM (inactive) in assay [3]; 45.7 µM (inactive) in assay [4]; > 100 µM (inactive) in [5]; 29.1 µM (inactive) in assay [6]. Also, the GI50 is 25.6 µM (inactive) in [7]; > 100 µM (inactive) in assay [8]; > 100 µM (inactive) in [9]; 30.8 µM (inactive) in assay [10]; > 100 µM in [11]; > 100 µM (inactive) in assay [12]. Moreover, the GI50 in [13] was > 100 µM (inactive); in assay [14] it was 56.9 µM (inactive); in assay [15] it was > 100 µM (inactive); in assay [16], 54.8 µM (inactive); in assay [17], > 100 µM (inactive).
As for `COC(=O)c1ccc(NCc2cc(O)ccc2O)cc1`, the GI50 in [1] was 8 µM (inactive); in assay [2] it was 17.5 µM (inactive); in assay [4], 15.3 µM (inactive); in assay [5], 10.2 µM (inactive); in assay [6], 12.4 µM (inactive); in assay [7] it was 3.93 µM (inactive). Also, the GI50 is 13.3 µM (inactive) in [8]; 8.38 µM (inactive) in assay [9]; 10.4 µM (inactive) in [10]; 1.58 µM (inactive) in assay [18]; 10.2 µM in assay [11]; 4 µM (inactive) in assay [19]. Further, the GI50 in assay [12] is 1.69 µM (inactive); in [13], 10.9 µM (inactive); in assay [14], 9.89 µM (inactive); in [15], 12.6 µM (inactive); in assay [16], 16.8 µM (inactive); in assay [20], 1.69 µM (inactive). Further, the GI50 in assay [17] was 12.4 µM (inactive).
For the compound `CN1CCN(c2ccc3nc(C4=C(O)C(=O)c5c(nc(CO)n5C)C4=O)[nH]c3n2)CC1`, the GI50 was > 100 µM (inactive) in [1]; > 100 µM (inactive) in assay [3]; 24.6 µM (inactive) in assay [4]; > 100 µM (inactive) in [5]; > 100 µM (inactive) in assay [6]; > 100 µM (inactive) in assay [7]. Moreover, the GI50 is > 100 µM (inactive) in [8]; > 100 µM (inactive) in [9]; 74.3 µM (inactive) in assay [10]; > 100 µM in [11]; 59.8 µM (inactive) in [19]; 93.8 µM (inactive) in assay [12]. Further, the GI50 in assay [13], in assay [14], in [15], in [20] and in assay [17] was > 100 µM (inactive) in each case.
Take `O=C1C=CC(=O)c2c1c1c(c3c2C2c4ccccc4C3c3ccccc32)C2c3ccccc3C1c1ccccc12`: the GI50 in assay [1] is 2.04 µM (inactive); in [2] it was 1.87 µM (inactive); in [4], 10.2 µM (inactive); in [5], 1.73 µM (inactive); in [6], 12.7 µM (inactive); in [7], 4.29 µM (inactive). In addition, the GI50 in assay [8] is 1.08 µM (active); in [9], 4.71 µM (inactive); in assay [10], 2.07 µM (inactive); in [18], 1.95 µM (inactive); in assay [11], 1.54 µM; in assay [19] it was 3.69 µM (inactive). In addition, the GI50 in [12] is 1.79 µM (inactive); in [13] it was 1.77 µM (inactive); in assay [14], 7.06 µM (inactive); in [15], 1.5 µM (inactive); in assay [16], 2.9 µM (inactive); in assay [20], 1.54 µM (inactive). For the same compound, the GI50 in assay [17] was 15.1 µM (inactive).
For `C=C1CC2OC2(C(=O)O[C@H]2CCC3[C@@H]4CCC5=CC(=O)CC[C@]5(C)C4CC[C@@]32C)C1=O` (some centres not stated), the GI50 in assay [1] was 8.38 µM (inactive); in assay [2], 6.49 µM (inactive); in assay [4], 16.9 µM (inactive); in [5], 8.09 µM (inactive); in [6], 12.6 µM (inactive); in assay [7], 16.8 µM (inactive). The GI50 was 9.75 µM (inactive) in [8]; 22.9 µM (inactive) in [9]; 14.6 µM (inactive) in assay [10]; 0.805 µM (active) in assay [18]; 3.68 µM in assay [11]; 1.78 µM (inactive) in assay [19]. Further, the GI50 in assay [12] was 1.47 µM (inactive); in assay [13], 8.51 µM (inactive); in assay [14], 10.9 µM (inactive); in [15], 4.1 µM (inactive); in assay [16], 13.6 µM (inactive); in [20], 0.83 µM (active). For the same compound, the GI50 in assay [17] was 17.8 µM (inactive).
`COC(=O)c1cc2ccc(O)c(O)c2cn1`: the GI50 in assay [1] was 18.3 µM (inactive); in assay [2], 20 µM (inactive); in assay [3] it was 10.9 µM (inactive); in assay [4] it was 21.5 µM (inactive); in assay [5], 19.1 µM (inactive); in assay [6], 18.1 µM (inactive). The GI50 in assay [8] is 12.6 µM (inactive); in assay [9], 18.2 µM (inactive); in assay [10], 2.41 µM (inactive); in assay [18], 4.25 µM (inactive); in assay [11], 20.3 µM; in [19] it was 2.42 µM (inactive). Besides, the GI50 was 17.1 µM (inactive) in assay [12]; 17.1 µM (inactive) in assay [13]; 17.5 µM (inactive) in assay [14]; 18.9 µM (inactive) in [15]; > 10 µM (inactive) in [16]; 3.36 µM (inactive) in assay [20]. In addition, in assay [17], the GI50 is 67.8 µM (inactive).
Regarding `CNC(=O)N1N[C@H](c2ccccc2)[C@@H]1c1ccccc1.OB(O)O`, the GI50 in [1] is 22.5 µM (inactive); in assay [2] it was 40.4 µM (inactive); in assay [3], 28.8 µM (inactive); in assay [4], 15.6 µM (inactive); in [5] it was 36.6 µM (inactive); in assay [6], 17 µM (inactive). For the same compound, the GI50 was 22.5 µM (inactive) in assay [7]; 26.3 µM (inactive) in assay [8]; 16.7 µM (inactive) in [9]; 13.2 µM (inactive) in assay [10]; 18.4 µM (inactive) in [18]; 24.3 µM in assay [11]. The GI50 in assay [19] is 22.6 µM (inactive); in assay [13] it was 17 µM (inactive); in assay [14], 18.6 µM (inactive); in assay [15], 20 µM (inactive); in [16] it was 20.6 µM (inactive); in assay [20] it was 23.7 µM (inactive).
For `O=c1c2cc(S(=O)(=O)O)ccc2nc(COc2ccc(Oc3ccc(Cl)cc3Cl)cc2)n1-c1ccc(Oc2ccc(Cl)cc2)cc1Cl`, the GI50 in assay [1] was 13.9 µM (inactive); in assay [2], 22 µM (inactive); in assay [4] it was 22.6 µM (inactive); in [5], 24.5 µM (inactive); in assay [6], 28.5 µM (inactive); in assay [7], 20 µM (inactive). In addition, the GI50 in assay [8] is 12.8 µM (inactive); in [9], 19.5 µM (inactive); in assay [10], 17.4 µM (inactive); in assay [18] it was 15.2 µM (inactive); in assay [11] it was 19.9 µM; in assay [19], 28.2 µM (inactive). The GI50 in [12] was 21.1 µM (inactive); in [13] it was 18.3 µM (inactive); in assay [14], 23.1 µM (inactive); in [15] it was 17.9 µM (inactive); in assay [16] it was 23.3 µM (inactive); in [20], 19.2 µM (inactive). Further, in [17], the GI50 was 38.3 µM (inactive).
Take `CCc1nc(Cl)c(Cl)c(Cl)n1`: the GI50 in assay [1] is > 100 µM (inactive); in assay [2], > 100 µM (inactive); in assay [4], 0.242 µM (active); in [5] it was > 100 µM (inactive); in [6], > 100 µM (inactive); in [7], > 100 µM (inactive). The GI50 in assay [9] is > 100 µM (inactive); in assay [10] it was > 100 µM (inactive); in assay [18], > 100 µM (inactive); in [11] it was > 100 µM; in [19] it was > 100 µM (inactive); in assay [12], > 100 µM (inactive). Also, the GI50 in assay [13], in assay [14] and in assay [20] was > 100 µM (inactive) each time.
Take `O=c1c(C(c2ccc(O)cc2)c2c(O)oc3ccccc3c2=O)c(O)oc2ccccc12`: the GI50 is > 100 µM (inactive) in assay [1]; > 100 µM (inactive) in [2]; 31.6 µM (inactive) in [3]; 30.9 µM (inactive) in assay [4]; > 100 µM (inactive) in assay [5]; > 100 µM (inactive) in [6]. For the same compound, the GI50 in [7] is > 100 µM (inactive); in assay [8], 78.5 µM (inactive); in assay [9] it was > 100 µM (inactive); in assay [10], 79.1 µM (inactive); in assay [11], 36.6 µM; in assay [13], 76.9 µM (inactive). For the same compound, the GI50 is 66.2 µM (inactive) in assay [14], 69.8 µM (inactive) in assay [15], > 100 µM (inactive) in assay [16] and > 100 µM (inactive) in assay [17].
Turning to `COc1ccc2nc3cc(Cl)ccc3c(NCCCNCCCNc3c4ccc(Cl)cc4nc4ccc(OC)cc34)c2c1`, the GI50 was < 0.0236 µM (active) in assay [1]; 0.0741 µM (active) in assay [2]; < 0.01 µM (active) in assay [3]; 0.0299 µM (active) in [4]; < 0.01 µM (active) in assay [5]; 0.0208 µM (active) in [6]. The GI50 in [8] is 0.0719 µM (active); in assay [9] it was < 0.01 µM (active); in [10], 0.0196 µM (active); in [18] it was < 0.01 µM (active); in [11], 0.0174 µM; in assay [19], < 0.01 µM (active). In addition, the GI50 in assay [12] is 0.0826 µM (active); in assay [13], 0.162 µM (active); in [14], 0.0164 µM (active); in assay [15] it was < 0.011 µM (active); in assay [16], 0.0541 µM (active); in [20], 0.0278 µM (active). In addition, in assay [17], the GI50 was 0.0373 µM (active).

The values are drawn from ChEMBL document CHEMBL1201862, “PubChem BioAssay data set” (2004).
